Measured values as given in article PMC7177897, “Benzylaminoethyureido-Tailed Benzenesulfonamides: Design, Synthesis, Kinetic and X-ray Investigations on Human Carbonic Anhydrases” (International Journal of Molecular Sciences, 2020).

Assays:
hCA II = biological target: T1, hCA II (Homo sapiens, UniProt P00918); test: stopped-flow CO2 hydration assay; format: biochemical
T1 construct: gene CA2; recombinant, made by the authors as in earlier publications; cytosolic isoform
Source text: stopped-flow CO2 hydration assay on hCA II

[1] = stopped-flow CO2 hydration assay; format: biochemical, Homo sapiens; conditions: read-out: hCA I
hCA I = biological target: T2, hCA I (Homo sapiens, UniProt P00915); test: stopped-flow CO2 hydration assay; format: biochemical
T2 construct: gene CA1; crystals from hCA I purchased from Sigma-Aldrich, residues 4-260 visible, two monomers per asymmetric unit
T2 sequence (P00915 2-261): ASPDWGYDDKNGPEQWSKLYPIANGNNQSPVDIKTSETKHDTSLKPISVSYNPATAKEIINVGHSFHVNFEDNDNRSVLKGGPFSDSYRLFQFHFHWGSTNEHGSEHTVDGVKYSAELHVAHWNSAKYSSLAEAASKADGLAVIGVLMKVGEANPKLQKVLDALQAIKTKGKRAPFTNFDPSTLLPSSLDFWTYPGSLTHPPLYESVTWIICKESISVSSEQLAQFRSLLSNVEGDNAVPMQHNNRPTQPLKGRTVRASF
Source text: stopped-flow CO2 hydration assay on hCA I

hCA XII = biological target: T3, hCA XII (Homo sapiens, UniProt O43570); test: stopped-flow CO2 hydration assay; format: biochemical
T3 construct: gene CA12; recombinant, made by the authors as in earlier publications
T3 sequence (O43570 25-354 limits assumed): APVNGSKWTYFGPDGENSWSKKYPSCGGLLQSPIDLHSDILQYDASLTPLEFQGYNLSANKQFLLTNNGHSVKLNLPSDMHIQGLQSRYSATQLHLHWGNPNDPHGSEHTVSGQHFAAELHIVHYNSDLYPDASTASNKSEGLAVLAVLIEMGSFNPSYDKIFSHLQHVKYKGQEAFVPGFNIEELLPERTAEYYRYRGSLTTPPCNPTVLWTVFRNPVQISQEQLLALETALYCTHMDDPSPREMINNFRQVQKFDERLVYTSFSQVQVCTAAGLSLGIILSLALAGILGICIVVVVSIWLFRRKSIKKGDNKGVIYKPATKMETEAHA
Source text: stopped-flow CO2 hydration assay on hCA XII

hCA IX = biological target: T4, hCA IX (Homo sapiens, UniProt Q16790); test: stopped-flow CO2 hydration assay; format: biochemical
T4 construct: gene CA9; recombinant, made by the authors as in earlier publications
Source text: stopped-flow CO2 hydration assay on hCA IX

For `NS(=O)(=O)c1cccc(NC(=O)NCCNCc2ccc(-c3ccccc3)cc2)c1` [compound 35, 3-(3-(2-(([1,1’-biphenyl]-4-ylmethyl)amino)ethyl)ureido) benzenesulfonamide], the Ki (hCA II) was 456 nM, the Ki [1] was > 10000 nM and the Ki (hCA I) was > 10000 nM. It also gave a Ki (hCA XII) of 688 nM.

For `COc1cc([N+](=O)[O-])ccc1CNCCNC(=O)Nc1ccc(S(N)(=O)=O)cc1` [compound 23, 4-(3-(2-((2-methoxy-4-nitrobenzyl)amino)ethyl)ureido)benzenesulfonamide], the Ki (hCA IX) was 291 nM, the Ki (hCA II) was 82.4 nM and the Ki (hCA I) was 788 nM. For the same molecule, the Ki (hCA XII) was 53.6 nM.

With `NS(=O)(=O)c1cccc(NC(=O)NCCNCc2ccccc2)c1` [compound 26, 3-(3-(2-(benzylamino)ethyl)ureido)benzenesulfonamide] the Ki (hCA IX) was > 10000 nM, the Ki (hCA II) was 76.3 nM and the Ki (hCA I) was 928 nM. The Ki (hCA XII) was 772 nM.

`NS(=O)(=O)c1ccc(NC(=O)NCCNCc2ccccc2F)cc1` [compound 19, 4-(3-(2-((2-fluorobenzyl)amino)ethyl)ureido) benzenesulfonamide] gave a Ki (hCA IX) of 20.3 nM, a Ki (hCA II) of 3.9 nM and a Ki (hCA I) of 24.6 nM. It also gave a Ki (hCA XII) of 58.3 nM.

In the case of `COc1cc([N+](=O)[O-])ccc1CNCCNC(=O)Nc1cccc(S(N)(=O)=O)c1` [compound 33, 3-(3-(2-((2-methoxy-4-nitrobenzyl)amino)ethyl)ureido)benzenesulfonamide], the Ki (hCA IX) is reported as 2610 nM, the Ki (hCA II) is reported as 90.2 nM and the Ki (hCA I) is reported as > 10000 nM. It also gave a Ki (hCA XII) of 53.1 nM.

Work on `NS(=O)(=O)c1ccc(NC(=O)NCCNCc2ccc(Br)cc2O)cc1` [compound 24, 4-(3-(2-((4-bromo-2-hydroxybenzyl)amino)ethyl)ureido) benzenesulfonamide] yielded a Ki (hCA IX) of 116 nM, a Ki (hCA II) of 5.3 nM and a Ki (hCA I) of 138 nM. It also gave a Ki (hCA XII) of 97.6 nM.

For `NS(=O)(=O)c1cccc(NC(=O)NCCNCc2ccc([N+](=O)[O-])cc2)c1` [compound 31, 3-(3-(2-((4-nitrobenzyl)amino)ethyl)ureido) benzenesulfonamide], the Ki (hCA IX) was 2320 nM, the Ki (hCA II) was 168 nM and the Ki (hCA I) was 5850 nM. The Ki (hCA XII) was 60.7 nM.

For `NS(=O)(=O)c1cccc(NC(=O)NCCNCc2ccccc2F)c1` [compound 29, 3-(3-(2-((2-fluorobenzyl)amino)ethyl)ureido) benzenesulfonamide], the Ki (hCA IX) was > 10000 nM, the Ki (hCA II) was 33.4 nM and the Ki (hCA I) was 728 nM. For the same molecule, the Ki (hCA XII) was 479 nM.

In the case of `NS(=O)(=O)c1ccc(NC(=O)NCCNCc2ccc(F)cc2)cc1` [compound 18, 4-(3-(2-((4-fluorobenzyl)amino)ethyl)ureido) benzenesulfonamide], the Ki (hCA IX) is reported as 30.1 nM, the Ki (hCA II) is reported as 9.2 nM and the Ki (hCA I) is reported as 725 nM. It also gave a Ki (hCA XII) of 53.2 nM.

`CN(C)c1ccc(CNCCNC(=O)Nc2cccc(S(N)(=O)=O)c2)cc1` [compound 32, 3-(3-(2-((4-(dimethylamino)benzyl)amino)ethyl)ureido) benzenesulfonamide] gave a Ki (hCA IX) of 1200 nM, a Ki (hCA II) of 565 nM and a Ki (hCA I) of 8910 nM. For the same molecule, the Ki (hCA XII) was 78 nM.

Molecule `NS(=O)(=O)c1cccc(NC(=O)NCCNCc2ccc(Br)cc2O)c1` [compound 34, 3-(3-(2-((4-bromo-2-hydroxybenzyl)amino)ethyl)ureido) benzenesulfonamide] has a Ki (hCA IX) of 1920 nM, a Ki (hCA II) of 2.8 nM and a Ki (hCA I) of 654 nM. It also gave a Ki (hCA XII) of 7.2 nM.

Molecule `CN(C)c1ccc(CNCCNC(=O)Nc2ccc(S(N)(=O)=O)cc2)cc1` [compound 22, 4-(3-(2-((4-(dimethylamino)benzyl)amino)ethyl)ureido) benzenesulfonamide] has a Ki (hCA IX) of 343 nM, a Ki (hCA II) of 73.2 nM and a Ki (hCA I) of 1510 nM. The Ki (hCA XII) was 264 nM.

`NS(=O)(=O)c1cccc(NC(=O)NCCNCc2ccc(F)cc2)c1` [compound 28, 3-(3-(2-((4-fluorobenzyl)amino)ethyl)ureido) benzenesulfonamide] gave a Ki (hCA IX) of 4210 nM, a Ki (hCA II) of 53.8 nM and a Ki (hCA I) of 868 nM. For the same molecule, the Ki (hCA XII) was 71.3 nM.

Molecule `NS(=O)(=O)c1ccc(NC(=O)NCCNCc2ccc(Cl)cc2)cc1` [compound 17, 4-(3-(2-((4-chlorobenzyl)amino)ethyl)ureido) benzenesulfonamide] has a Ki (hCA IX) of 458 nM, a Ki (hCA II) of 127 nM and a Ki (hCA I) of 582 nM. The Ki (hCA XII) was 32 nM.

Molecule `NS(=O)(=O)c1ccc(NC(=O)NCCNCc2ccccc2)cc1` [compound 16, 4-(3-(2-(benzylamino)ethyl)ureido) benzenesulfonamide] has a Ki (hCA IX) of 1350 nM, a Ki (hCA II) of 350 nM and a Ki (hCA I) of 552 nM. It also gave a Ki (hCA XII) of 54.5 nM.

In the case of `NS(=O)(=O)c1cccc(NC(=O)NCCNCc2ccc(O)cc2)c1` [compound 30, 3-(3-(2-((4-hydroxybenzyl)amino)ethyl)ureido) benzenesulfonamide], the Ki (hCA IX) is reported as 3510 nM, the Ki (hCA II) is reported as 166 nM and the Ki (hCA I) is reported as 6250 nM. The Ki (hCA XII) was 317 nM.

Work on `NS(=O)(=O)c1ccc(NC(=O)NCCNCc2ccc([N+](=O)[O-])cc2)cc1` [compound 21, 4-(3-(2-((4-nitrobenzyl)amino)ethyl)ureido) benzenesulfonamide] yielded a Ki (hCA IX) of 317 nM, a Ki (hCA II) of 96.1 nM and a Ki (hCA I) of 527 nM. The Ki (hCA XII) was 77.5 nM.

Work on `NS(=O)(=O)c1ccc(NC(=O)NCCNCc2ccc(O)cc2)cc1` [compound 20, 4-(3-(2-((4-hydroxybenzyl)amino)ethyl)ureido) benzenesulfonamide] yielded a Ki (hCA IX) of 974 nM, a Ki (hCA II) of 267 nM and a Ki (hCA I) of 781 nM. It also gave a Ki (hCA XII) of 75.8 nM.

`NS(=O)(=O)c1ccc(NC(=O)NCCNCc2ccc(-c3ccccc3)cc2)cc1` [compound 25, 4-(3-(2-(([1,1′-biphenyl]-4-ylmethyl)amino)ethyl)ureido) benzenesulfonamide] gave a Ki (hCA IX) of 1150 nM, a Ki (hCA II) of 63.2 nM and a Ki (hCA I) of 782 nM. The Ki (hCA XII) was 63.7 nM.

Work on `NS(=O)(=O)c1cccc(NC(=O)NCCNCc2ccc(Cl)cc2)c1` [compound 27, 3-(3-(2-((4-chlorobenzyl)amino)ethyl)ureido) benzenesulfonamide] yielded a Ki (hCA IX) of 3380 nM, a Ki (hCA II) of 36.9 nM and a Ki (hCA I) of 702 nM. It also gave a Ki (hCA XII) of 228 nM.
